Experimental findings from patent US20200079757A1, “COMPOUNDS FOR THE TREATMENT OF RESPIRATORY DISEASES” (THE UNIVERSITY OF MELBOURNE, priority 2017, published 2020) are described below.

The test system of assay [1] is SCNN1A gene expression in BEAS-2B cells. As to the kind of experiment: TGF-β-induced suppression of dexamethasone-induced SCNN1A gene expression in BEAS-2B cells. The format is cell-based. To be noted: for SCNN1A mRNA level, Dex / SCNN1A mRNA level, TGF-β / SCNN1A mRNA level, TGF-β/Dex / SCNN1A mRNA level, vehicle (no stimulus): BEAS-2B. The protocol: The primary assay for the activity of the novel CK1δ/ε inhibitors is the modulation of gene expression in the airway epithelial cell line, the BEAS-2B cells. The assay is conducted under several conditions. Generally, TGF-β or TNF-α is used to elicit fibrogenic or inflammatory genes, respectively. The agents are added at a concentration of 10 μM, or at the indicated concentrations for a period of 30 min prior to the addition of TGF-β/TNF-α which are incubated for a further 20 hours before the addition, in some experiments of the glucocorticoid, dexamethasone (Dex, 30 nM) for the final 4 hours of the experiment, prior to harvest of cellular RNA to measure by RT-qPCR the levels of mRNA of marker genes for inflammation and fibrogenesis. The inhaled corticosteroid (ICS), budesonide is also used in some experiments. Furthermore, the supernatants are harvested at the end of the incubation periods in selected experiments to measure the levels of CSF-2 or IL-8 by ELISA as described in (Tran et al. (2005) British Journal of Pharmacology, 145, 123-131). Prior to experimentation, BEAS-2B and A549 cells were incubated in serum-free DMEM containing 0.25% bovine serum albumin (BSA) and insulin-transferrin-selenium—containing supplement (Monomed A; CSL, Parkville, Melbourne, Australia). Where indicated, cells were treated with one of the series of synthesised compounds (0.3-10 μM) prior to exposure to 100 pM TGF-β1 (R&D Systems, Minneapolis, Minn.) or 300 pM bFGF (Promega, Madison, Wis.). Total RNA was extracted from cultured cells using illustra RNAspin Mini RNA Isolation Kit (GE Healthcare). RNA extracts were reverse-transcribed into cDNA using High-Capacity RNA-to-cDNA Kit (Applied Biosystems). Real-time PCR was then performed using a QuantStudio 6 Flex Real-Time PCR System using iTaq Universal SYBR green supermix and the following thermal protocol: 50° C. (2 min), 95° C. (10 min), then 40 cycles of 95° C. (15 sec), 60° C. (1 min). The threshold cycle (CT) values determined for target genes were normalized against those obtained for 18S ribosomal RNA (18S rRNA), which was included as internal control. The generation of specific PCR products was confirmed by dissociation curve analysis. In FIG. 1, the effects of SS9-010 are contrasted with those of PF670462 in an assay in BEAS-B cells measuring the induction of the glucocorticoid-regulated gene, SCNN1A encoding the protein epithelial sodium channel alpha subunit. Serum-starved BEAS-2B cells were treated with CK1δ/ε inhibitor PF670462 (1, 3, 10 μM) or SS9-010 (1, 3, 10 μM) 30 min prior to TGF-β1 (40 pM) for 24 hours, then stimulated with dexamethasone (30 nM) for 4 hours. RNA was then extracted and analyzed by RT-qPCR. Data are presented as mean±SEM for n=4 independent experiments. The potency of PF670462 and SS9-010 were similar.

The test system of a further assay is liver gene expression. As to the kind of experiment: Liver fibrogenic gene expression after oral (gavage) dosing in bleomycin-treated mice. The format is in vivo, mouse. Conditions: female C57BL6 mice, 30 mg/kg po once daily day −1 to 3, 3 days after transnasal bleomycin. The protocol:
FIG. 11. The effects of oral (gavage) PF670462 or […] were investigated in female C57BL6 mice, with a focus on liver gene expression. […] Data are presented as mean±SEM (n=4). In studies to ascertain the effect of oral administration of either PF670462 or SS8-058 we harvested the liver on day 3 from mice that had been treated transnasally with bleomycin on day 0 to measure gene expression of products that are implicated in fibrogenesis. Mice were treated once daily by gavage from day −1 to day 3 with either PF670462 or SS8-058 (30 mg/kg, po).

A further assay deals with TGFβ-activated A549. Briefly: TGFβ-activated A549 gene expression (modulation of mRNA level, RT-qPCR). Conditions: for CTGF expression / PAI-1 expression / TGF-β-induced suppression of E-cadherin: A549, 0.1-10 μM prior to TGF-β (100 pM) 24 hr; for IC50: Homo sapiens, read-out: -Log IC50 ± SEM (modulation of mRNA level), N-Cadherin induction (converted). The format is cell-based.

[2] abbreviates: A549, agent 0.1-10 μM before TGF-β (100 pM) 24 hr.

SMILES strings stand for the structures.

Turning to `CCCCCCCCN1CCC(n2cnc(-c3ccc(F)cc3)c2-c2ccnc(N)n2)CC1` [SS8-058, 4-(4-(4-Fluorophenyl)-1-[1-octylpiperidin-4-yl]-1H-imidazol-5-yl)pyrimidin-2-amine], in assay [1] (agent 10 μM), the “SCNN1A mRNA level, Dex” value stood at 6.57 fold control; the “SCNN1A mRNA level, TGF-β” value was determined as 0.91 fold control; the “SCNN1A mRNA level, TGF-β/Dex” value is 3.77 fold control; the “SCNN1A mRNA level, vehicle (no stimulus)” value is given as 2.62 fold control. In addition, in the assay with liver gene expression, the “liver baseline mRNA level of PAI-1” value is “significant reductions” and the “liver baseline mRNA level of TMP1” value is “significant reductions”.

In general, IC50 refers to the concentration at which inhibition is half-maximal. In the case of `CNc1nccc(-c2c(-c3ccc(F)cc3)ncn2C2CCCCC2)n1` [SS9-010, 4-(1-Cyclohexyl-4-(4-fluorophenyl)-1H-imidazol-5-yl)-N-methylpyrimidin-2-amine], in assay [1] (BEAS-2B, 1, 3, 10 μM, TGF-β1 40 pM 24 h, dexamethasone 30 nM 4 h), the “potency compared with PF670462, induction of glucocorticoid-regulated gene SCNN1A” value is listed as “similar”. In assay [1] (agent 3 μM), the “SCNN1A mRNA level, Dex” value came out at 3.77 ± 0.33 fold control; the “SCNN1A mRNA level, TGF-β” value came to 0.67 ± 0.03 fold control; the “SCNN1A mRNA level, TGF-β/Dex” value was 2.77 ± 0.31 fold control; the “SCNN1A mRNA level, vehicle (no stimulus)” value is reported as 1.14 ± 0.05 fold control. In addition, in the assay on TGFβ-activated A549, the CTGF expression entry was “concentration-dependently inhibited”, the PAI-1 expression entry is recorded as “concentration-dependently inhibited” and the “TGF-β-induced suppression of E-cadherin” value is reported as “restored”. In addition, the IC50 in the assay on TGFβ-activated A549 (setting [2]) was 2 µM.

Turning to `Cl.Nc1nccc(-c2c(-c3ccc(F)cc3)ncn2C2CCCCC2)n1` [PF670462, 4-(1-Cyclohexyl-4-(4-fluorophenyl)-1H-imidazol-5-yl)pyrimidin-2-amine hydrochloride, reference compound], in assay [1] (agent 3 μM), the “SCNN1A mRNA level, Dex” value turned out to be 3.36 ± 0.25 fold control; the “SCNN1A mRNA level, TGF-β” value worked out at 0.91 ± 0.08 fold control; the “SCNN1A mRNA level, TGF-β/Dex” value is recorded as 2.56 ± 0.08 fold control; the “SCNN1A mRNA level, vehicle (no stimulus)” value is given as 1.11 ± 0.10 fold control. Moreover, in the assay on liver gene expression, the “liver baseline mRNA level of PAI-1” value is listed as “significant reductions” and the “liver baseline mRNA level of TMP1” value is “significant reductions”. For the same compound, in the assay with TGFβ-activated A549, the CTGF expression entry was “concentration-dependently inhibited”, the PAI-1 expression result is “concentration-dependently inhibited” and the “TGF-β-induced suppression of E-cadherin” value is on record as “restored”. In the assay on TGFβ-activated A549 (setting [2]), the “-Log IC50 ± SEM (modulation of mRNA level), Vimentin induction” value is “Inactive” and the IC50 is 4.47 µM.
